Measured values: paper PMC2360155, “Novel retinoic acid metabolism blocking agents have potent inhibitory activities on human breast cancer cells and tumour growth” (British Journal of Cancer, 2007)

Columns and labels:
CRABPI = target: T1, CRABPI (Mus musculus, UniProt P62965); assay: CRABP competition binding assay, CRABPI; conditions: competition with [3H]-all-trans-RA; read-out: CRAPBI IC50
T1 construct: Wild-type full-length cDNAs for mouse CRABPI and CRABPII were subcloned into the prokaryotic expression vector pRSETB; pRSETB vector fusion leader (purified on Ni-NTA, so a His tag); made in house; host or cells: Escherichia coli BL21(DE3)pLys
Method: IC50 values were calculated as described above in the RAR binding studies.

RARα [1] = target: T2, RARα (Mus musculus, UniProt P11416); assay: Transactivation assay (RARE-CAT reporter, CV-1 cells), RARα; type: cell-based; conditions: 50% of maximal activity obtained with 10^−6 M all-trans-RA
T2 sequence (P11416 1-462): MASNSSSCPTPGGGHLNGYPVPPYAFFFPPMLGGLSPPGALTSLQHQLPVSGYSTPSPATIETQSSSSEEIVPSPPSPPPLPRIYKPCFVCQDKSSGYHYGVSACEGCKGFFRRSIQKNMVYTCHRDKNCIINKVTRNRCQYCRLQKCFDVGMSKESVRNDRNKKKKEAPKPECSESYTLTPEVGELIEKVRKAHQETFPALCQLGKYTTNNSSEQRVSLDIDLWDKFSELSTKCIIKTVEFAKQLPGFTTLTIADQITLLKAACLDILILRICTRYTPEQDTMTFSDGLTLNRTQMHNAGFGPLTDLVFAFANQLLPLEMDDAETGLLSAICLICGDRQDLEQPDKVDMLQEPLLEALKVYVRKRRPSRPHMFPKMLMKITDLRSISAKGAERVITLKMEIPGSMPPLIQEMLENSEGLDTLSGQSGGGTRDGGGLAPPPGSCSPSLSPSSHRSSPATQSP
Method: (§1) Briefly, CV-1 cells were cotransfected with 4 μg RAR subtype (RARα, RARβ or RARγ) expression vector construct in pSG5, 4 μg RARE-CAT reporter DNA and 1 μg pCMV-β-gal DNA. Twenty-four hours following transfection, the cells were treated with various concentrations of each RAMBA ranging from 10^−11–10^−5 M along with an ethanol carrier control. Additional cells were treated with 10^−6 M all-trans-RA for normalisation. Twenty-four hours later, the cells were harvested and CAT and β-gal activities were assayed.

T47D cells [2] = assay: Cell cycle analysis by flow cytometry (PI), T47D; type: cell-based, human; conditions: 5 μM, 6 days (4-HPR 4 days)
Method: MCF-7 and T47D cells were plated in T-25 flasks and allowed to adhere for about 18 h. The cells were then synchronised by growing them in low-serum OPTI-MEM I medium for 2 days. […] After 6-day treatment, the cells were trypsinised, washed twice with PBS, centrifuged at 2500 r.p.m. to obtain a cell pellet. The cells (about 1–2 × 10^6) were fixed with 3 ml of 70% ethanol (by adding drop-wise and taking care that the cells are not clumped together). Cells were kept at −20°C until further analysis (at least overnight). Next, cells (∼1–2 × 10^6) were stained with 1 ml of propidium iodide (PI) (50 μg ml^−1)/RNase (100 μg ml^−1) solution and after about half an hour the fluorescence of stained nuclei (15 000 events) was analysed by flow cytometry (Becton Dickinson FACScan Instrument and quantification by Modfit LT version 3.1 software) with excitation wavelength of 488 nm. The percentage of G1, S, G2/M and sub-G1 (apoptotic cells) in the population of treated and untreated cells were determined.

RARγ [3] = target: T3, RARγ (Mus musculus, UniProt P18911); assay: Retinoid receptor competition binding assay, RARγ; conditions: competition with 1.0 nM [3H]-all-trans-RA
T3 construct: expressed in transfected cells; host or cells: CV-1 cells
T3 sequence (P18911 1-458): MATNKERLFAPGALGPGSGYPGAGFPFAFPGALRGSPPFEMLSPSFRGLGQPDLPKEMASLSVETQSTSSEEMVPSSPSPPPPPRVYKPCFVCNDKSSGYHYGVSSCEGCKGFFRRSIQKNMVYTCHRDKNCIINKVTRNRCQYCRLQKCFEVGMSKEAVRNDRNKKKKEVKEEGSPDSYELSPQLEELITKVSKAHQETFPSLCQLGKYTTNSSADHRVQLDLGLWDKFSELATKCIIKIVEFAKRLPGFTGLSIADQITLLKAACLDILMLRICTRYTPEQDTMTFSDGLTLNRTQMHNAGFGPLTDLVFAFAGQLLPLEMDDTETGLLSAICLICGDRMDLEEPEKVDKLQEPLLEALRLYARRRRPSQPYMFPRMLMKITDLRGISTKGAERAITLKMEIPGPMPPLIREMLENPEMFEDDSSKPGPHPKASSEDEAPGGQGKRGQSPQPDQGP

RARα [4] = target: T2, RARα; assay: Retinoid receptor competition binding assay, RARα; design: The full-length cDNA clones for RARα, RARβ, RARγ and RXRα were cloned into the prokaryotic expression vector pET29; S-Tag; made in house; host or cells: prokaryotic host (pET29 vector); conditions: competition with 1.0 nM [3H]-all-trans-RA
RARγ [5] = target: T3, RARγ; assay: Transactivation assay (RARE-CAT reporter, CV-1 cells), RARγ; type: cell-based; conditions: 50% of maximal activity obtained with 10^−6 M all-trans-RA
Method: as §1

RXRα = target: T4, RXRα (Homo sapiens, UniProt P19793); assay: Retinoid receptor competition binding assay, RXRα; conditions: competition with 1.0 nM [3H]-9-cis-RA
T4 construct: The full-length cDNA clones for RARα, RARβ, RARγ and RXRα were cloned into the prokaryotic expression vector pET29; S-Tag; made in house; host or cells: prokaryotic host (pET29 vector)
T4 sequence (P19793 1-462): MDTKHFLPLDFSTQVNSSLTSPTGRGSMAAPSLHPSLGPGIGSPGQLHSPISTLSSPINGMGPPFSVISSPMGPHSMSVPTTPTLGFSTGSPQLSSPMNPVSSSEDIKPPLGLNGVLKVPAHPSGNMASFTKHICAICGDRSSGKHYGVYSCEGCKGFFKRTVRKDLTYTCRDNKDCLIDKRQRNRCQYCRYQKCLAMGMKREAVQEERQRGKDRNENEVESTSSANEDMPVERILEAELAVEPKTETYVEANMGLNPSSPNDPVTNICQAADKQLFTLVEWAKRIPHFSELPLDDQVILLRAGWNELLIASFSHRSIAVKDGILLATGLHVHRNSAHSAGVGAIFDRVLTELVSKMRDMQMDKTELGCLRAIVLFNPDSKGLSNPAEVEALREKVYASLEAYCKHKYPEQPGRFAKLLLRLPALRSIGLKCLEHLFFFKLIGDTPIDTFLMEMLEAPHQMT

T47D cells [6] = test system: T47D cells; design: method as in Patel et al. (2004); conditions: inhibition of cell proliferation by 50%; ref Patel et al. (2004); read-out: Cellular IC50, T47D; cited from earlier work

T1 sequence (P62965 whole entry, the tested form may be a part): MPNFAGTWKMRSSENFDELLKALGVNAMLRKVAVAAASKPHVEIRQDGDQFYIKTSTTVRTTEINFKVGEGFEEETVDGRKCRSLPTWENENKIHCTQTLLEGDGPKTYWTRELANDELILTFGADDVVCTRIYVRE

| Compound | IC50 (CRABPI) [nM] | EC50 (RARα [1]) [nM] | G2/M (%) (T47D cells [2]) | Go/G1 (%) (T47D cells [2]) | S (%) (T47D cells [2]) | Sub-G1 (%) (T47D cells [2]) | IC50 (RARγ [3]) [nM] | IC50 (RARα [4]) [nM] | EC50 (RARγ [5]) [nM] | IC50 (RXRα) [nM] | IC50 (T47D cells [6]) [nM] |
| --- | --- | --- | --- | --- | --- | --- | --- | --- | --- | --- | --- |
| CC1=C(/C=C/C(C)=C/C=C/C(C)=C\C(=O)Nc2ccc(O)cc2)C(C)(C)CCC1n1ccnc1 (stereo not shown) [VN/69-1] | > 500 | > 10000 | 21.01±0.99 | 78.99±0.99 | 0 | 24.34±1.24 | > 1000 | > 1000 | > 10000 | > 500 |  |
| CC1=C(/C=C/C(C)=C/C=C/C(C)=C/C(=O)O)C(C)(C)CCC1 [ATRA, all-trans-retinoic acid, reference compound] |  |  | 13.03±4.06 | 83.89±0.96 | 3.1±1.3 | 17.12±4.06 |  |  |  |  | 8 |
| CC1=C(/C=C/C(C)=C/C=C/C(C)=C/C(=O)Nc2ccc(O)cc2)C(C)(C)CCC1n1ccnc1 (stereo not shown) [VN/66-1] | > 500 | > 10000 | 19.57±0.21 | 80.44±0.20 | 0 | 26.41±1.18 | > 1000 | > 1000 | > 10000 | > 500 | 570 |
| CC1=C(/C=C/C(C)=C/C=C/C(C)=C/C(=O)O)C(C)(C)CCC1n1ccnc1 (stereo not shown) [VN/14-1] | > 500 | 300 | 20.85±3.75 | 77.98±2.56 | 1.18±1.0 | 22.38±2.95 | 16 | 16 | 1000 | > 500 | 3 |
